The results in this text go back to patent US9567339B2, “Primary carboxamides as BTK inhibitors” (AbbVie Inc., priority 2013, dated 2017).

Some results are limits rather than exact numbers.

BTK, recombinant human catalytic domain (aa 393-659), sequence (Q06187 393-659): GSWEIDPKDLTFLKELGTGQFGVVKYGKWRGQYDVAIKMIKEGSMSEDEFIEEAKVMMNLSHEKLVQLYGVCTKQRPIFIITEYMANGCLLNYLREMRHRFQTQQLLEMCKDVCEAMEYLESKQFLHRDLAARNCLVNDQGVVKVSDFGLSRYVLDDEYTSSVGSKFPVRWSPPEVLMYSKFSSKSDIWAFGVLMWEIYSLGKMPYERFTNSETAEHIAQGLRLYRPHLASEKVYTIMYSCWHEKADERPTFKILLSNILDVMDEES

The first assay has as its target BTK, recombinant human catalytic domain (aa 393-659) (Homo sapiens (Human), UniProt Q06187). As to the kind of experiment: In vitro BTK kinase activity measured by time-resolved fluorescence resonance energy transfer (trFRET). Type of assay: biochemical. The settings on record: read-out: Btk IC50.
What is called IC50 is the concentration needed to halve the response being measured. `C=CC(=O)Nc1cc(OCc2ccccc2)ccc1-c1ccc(C(N)=O)c2[nH]ccc12` [E.1.17]: the IC50 is 1 to 10 µM.
The same measure, in the same setting: next, `NC(=O)c1ccc(N2CCC[C@@H](n3cnc4ccccc4c3=O)C2)c2cc(-c3ccc(F)cc3)[nH]c12` [O.1.14*]: 0.1 to 1 µM.
As to `C=CC(=O)N1CCC[C@@H](c2ncc(C(N)=O)c3[nH]ccc23)C1` [E.9.32], the IC50 was < 0.1 µM.
Same read-out and setting: next, `C=CC(=O)N1CC[C@H](c2ccc(C(N)=O)c3[nH]c(-c4cnn(C)c4)cc23)C1` [E.9.48]: < 0.1 µM; `C=CC(=O)N1C[C@@H](CO)C[C@H](c2ccc(C(N)=O)c3[nH]ccc23)C1` [E.9.46]: 1 to 10 µM.
Still for that read-out and setting: to `C=CC(=O)N1CCOC[C@@H](c2ncc(C(N)=O)c3[nH]ccc23)C1` [E.9.30] belongs < 0.1 µM; to `C=CC(=O)N1CCC[C@@H](c2ccc(C(N)=O)c3[nH]c(-c4cnn(C)c4)cc23)C1` [Example 4.1], < 0.1 µM; to `Cc1c(NC(=O)/C=C/CN2CCCCC2)cccc1-c1ccc(C(N)=O)c2[nH]ccc12` [J.1.1], 0.1 to 1 µM.
Take `C=CC(=O)N1CC(N(C)c2ccc(C(N)=O)c3[nH]c(C4(O)COC4)cc23)C1` [E.9.22]: the IC50 lay in the range of 0.1 to 1 µM.
On the same count and under the same terms, to `C=CC(=O)N1CC(Nc2cnc(C(N)=O)c3[nH]ccc23)C1` [E.9.34] belongs < 0.1 µM; to `Cc1c(NC(=O)/C=C/C(N)=O)cccc1-c1ccc(C(N)=O)c2[nH]c(C3=CCN(S(C)(=O)=O)CC3)cc12` [D.7.25], < 0.1 µM; to `Cc1c(NC(=O)CCN2CCCC2)cccc1-c1ccc(C(N)=O)c2[nH]c(C3=CCN(S(C)(=O)=O)CC3)cc12` [D.7.12], < 0.1 µM.
Consider `C=CC(=O)N1CC(N(C)c2ccc(C(N)=O)c3[nH]c(C)cc23)C1` [E.9.25], for which the IC50 was < 0.1 µM.
The same measure, in the same setting: to `NC(=O)c1ccc(N2CCC[C@@H](n3cnc4ccccc4c3=O)C2)c2cc(-c3cccnc3)[nH]c12` [O.1.27*] belongs 0.1 to 1 µM.
The same measure, in the same setting: next, `C=CC(=O)N1CCC[C@@H](c2cnc(C(N)=O)c3[nH]ccc23)C1` [E.9.51]: 0.1 to 1 µM.
With `C=CC(=O)Nc1cncc(-c2ccc(C(N)=O)c3[nH]ccc23)c1` [E.1.4], the IC50 was < 0.1 µM.
Regarding `Cc1c(NC(=O)C(C)C)cccc1-c1ccc(C(N)=O)c2[nH]c(C3=CCN(S(C)(=O)=O)CC3)cc12` [D.7.40], the IC50 is < 0.1 µM.
Same read-out and setting: to `C=CC(=O)Nc1cc(-c2ccc(C(N)=O)c3[nH]ccc23)ccc1C#N` [E.1.31] belongs < 0.1 µM; to `C=CC(=O)N1CC(N(C)c2ccc(C(N)=O)c3[nH]c([C@@H]4CCOC4)cc23)C1` [Example 5.1], < 0.1 µM.
The same measure, in the same setting: to `NC(=O)c1ccc(N2CCC[C@@H](n3cnc4ccccc4c3=O)C2)c2cc[nH]c12` [O.1.12*] belongs 1 to 10 µM; to `NC(=O)c1ccc(N2CCC[C@@H](NC(=O)c3ccc(C(F)(F)F)cc3)C2)c2cc[nH]c12` [O.1.8*], 1 to 10 µM.
Still for that read-out and setting: to `Cc1c(-c2ccc(C(N)=O)c3[nH]c(C4=CCN(C)CC4)cc23)cccc1-n1cnc2ccccc2c1=O` [H.1.1] belongs < 0.1 µM.
For `C=CC(=O)Nc1cc(OC)cc(-c2ccc(C(N)=O)c3[nH]ccc23)c1` [E.1.28], the IC50 was 0.1 to 1 µM.
Regarding `Cc1c(NC(=O)/C=C\Cl)cccc1-c1ccc(C(N)=O)c2[nH]c(C3=CCN(S(C)(=O)=O)CC3)cc12` [D.7.17], the IC50 is < 0.1 µM.
Same read-out and setting: next, `CC(C)(C)c1ccc(C(=O)N[C@@H]2CCCN(c3ccc(C(N)=O)c4[nH]c(-c5cccnc5)cc34)C2)cc1` [O.1.26]: < 0.1 µM.
Same read-out and setting: to `CCOC(=O)N1CC=C(c2cc3c(-c4cccc(-n5cnc6ccccc6c5=O)c4C)ccc(C(N)=O)c3[nH]2)CC1` [E.6.2] belongs < 0.1 µM.
Still for that read-out and setting: to `C=CC(=O)N1CC(N(C)c2ccc(C(N)=O)c3[nH]c(-c4ccc5c(c4)CCN(CC)C5)cc23)C1` [E.9.17] belongs < 0.1 µM; to `C=CC(=O)Nc1cc(-c2ccc(C(N)=O)c3[nH]ccc23)c(F)cc1F` [E.1.22], < 0.1 µM; to `Cc1c(-c2ccc(C(N)=O)c3[nH]c(C4=CCNCC4)cc23)cccc1-n1cnc2ccccc2c1=O` [G.1.1, 4-(2-methyl-3-(4-oxoquinazolin-3(4H)-yl)phenyl)-2-(1,2,3,6-tetrahydropyridin-4-yl)-1H-indole-7-carboxamide], < 0.1 µM.

Still in this assay, the particulars now being: trFRET, 0.001 mM ATP, biotin-TYR1 peptide substrate; read-out: Btk IC50.
In the case of `C=CC(=O)NCc1cccc(-c2ccc(C(N)=O)c3[nH]c(C4=CCN(S(C)(=O)=O)CC4)cc23)c1` [A.4.1], the IC50 is < 0.1 µM.
`Cc1c(-c2ccc(C(N)=O)c3[nH]c(-c4cccnc4)cc23)cccc1N1Cc2ccccc2C1=O` [A.7.4]: the IC50 was < 0.1 µM.
Still for that read-out and setting: to `CS(=O)(=O)N1CC=C(c2cc3c(N4CCC[C@@H](N5CCc6ccccc6C5=O)C4)ccc(C(N)=O)c3[nH]2)CC1` [Example 13, (R)-2-(1-(Methylsulfonyl)-1,2,3,6-tetrahydropyridin-4-yl)-4-(3-(1-oxo-3,4-dihydroisoquinolin-2(1H)-yl)piperidin-1-yl)-1H-indole-7-carboxamide] belongs < 0.1 µM; to `C=CC(=O)NCc1ccccc1-c1cc2c(-c3cccc(NC(=O)c4nccs4)c3C)ccc(C(N)=O)c2[nH]1` [D.1.2], 1 to 10 µM; to `C=C(C(=O)Nc1cccc(-c2ccc(C(N)=O)c3[nH]ccc23)c1C)c1ccccc1` [D.8.7], 0.1 to 1 µM.
As to `N#CCNC(=O)c1cccc(-c2ccc(C(N)=O)c3[nH]ccc23)c1` [Example 15, 4-(3-((Cyanomethyl)carbamoyl)phenyl)-1H-indole-7-carboxamide], the IC50 lay within 1 to 10 µM.
Still for that read-out and setting: to `CC(=O)N1CC=C(c2cc3c(-c4cccc(NC(=O)c5ccc(C(C)(C)C#N)cc5)c4C)ccc(C(N)=O)c3[nH]2)CC1` [A.3.8] belongs < 0.1 µM; to `C=CC(=O)N[C@@H]1CCC[C@H](c2ccc(C(N)=O)c3[nH]ccc23)C1` (relative stereo) [Example 8, 4-(cis-3-Acrylamidocyclohexyl)-1H-indole-7-carboxamide], < 0.1 µM; to `Cc1c(-c2ccc(C(N)=O)c3[nH]c(-c4cccnc4)cc23)cccc1-n1cnc2ccccc2c1=O` [A.7.2], < 0.1 µM.
Still for that read-out and setting: next, `Cc1ccc(-c2cc3c(-c4ccn[nH]4)ccc(C(N)=O)c3[nH]2)cc1` [A.8.8]: 0.1 to 1 µM; `Cc1c(NC(=O)c2cc3c(s2)CCCC3)cccc1-c1ccc(C(N)=O)c2[nH]c(-c3cnn(C)c3)cc12` [A.10.5]: < 0.1 µM.
On the same count and under the same terms, next, `C=CC(=O)Nc1cccc(-c2ccc(C(N)=O)c3[nH]c(-c4cccc(OC)c4)cc23)c1C` [A.1.22]: < 0.1 µM; `CS(=O)(=O)N1CC=C(c2cc3c(-c4ccccc4N)ccc(C(N)=O)c3[nH]2)CC1` [A.4.2, 4-(2-aminophenyl)-2-(1-(methylsulfonyl)-1,2,3,6-tetrahydropyridin-4-yl)-1H-indole-7-carboxamide]: < 0.1 µM; `C=CC(=O)Nc1cccc(-c2ccc(C(N)=O)c3[nH]c(C)cc23)c1` [Example 19, 4-(3-Acrylamidophenyl)-2-methyl-1H-indole-7-carboxamide]: < 0.1 µM.
Regarding `Cc1c(NC(=O)c2nccs2)cccc1-c1ccc(C(N)=O)c2[nH]c(-c3cnn(C)c3)cc12` [A.2.2], the IC50 was < 0.1 µM.
In the case of `C=CC(=O)N1CCCC(c2ccc(C(N)=O)c3[nH]c(-c4cnn(C)c4)cc23)C1` (centres unmarked) [Example 26, 4-(1-Acryloylpiperidin 3-yl)-2-(1-methyl-1H-pyrazol-4-yl)-1H-indole-7-carboxamide], the IC50 is < 0.1 µM.
Still for that read-out and setting: to `C=CC(=O)Nc1cccc(-c2ccc(C(N)=O)c3[nH]c(-c4ccc(C(=O)N5CCN(C)CC5)cc4)cc23)c1C` [A.1.39] belongs < 0.1 µM.
For the compound `Cc1c(NC(=O)c2ccc(C(F)F)cc2)cccc1-c1ccc(C(N)=O)c2[nH]c(C3=CCN(S(C)(=O)=O)CC3)cc12` [A.4.10], the IC50 is < 0.1 µM.
On the same count and under the same terms, next, `C=CC(=O)Nc1cccc(-c2ccc(C(N)=O)c3[nH]c(C4=CCN(S(C)(=O)=O)CC4)cc23)c1` [A.4.15]: < 0.1 µM; `C=CC(=O)Nc1cccc(-c2ccc(C(N)=O)c3[nH]c(-c4cccc(C(=O)OC)c4)cc23)c1C` [A.1.19]: < 0.1 µM; `C=CC(=O)Nc1cccc(-c2ccc(C(N)=O)c3[nH]c(-c4cn(C)nc4C)cc23)c1C` [A.1.5]: < 0.1 µM.
For the compound `CS(=O)(=O)N1CC=C(c2cc3c(N4CCC[C@@H](N5CCCCC5=O)C4)ccc(C(N)=O)c3[nH]2)CC1` [Example 12, (R)-2-(1-(Methylsulfonyl)-1,2,3,6-tetrahydropyridin-4-yl)-4-(2-oxo-1,3′-bipiperidin-1′-yl)-1H-indole-7-carboxamide], the IC50 was in the range of 0.1 to 1 µM.
Still for that read-out and setting: to `C=CC(=O)Nc1cccc(-c2ccc(C(N)=O)c3[nH]c(-c4ccc(CN5CCOCC5)cc4)cc23)c1C` [A.1.44] belongs < 0.1 µM; to `COC(=O)/C=C/C(=O)Nc1cccc(-c2ccc(C(N)=O)c3[nH]ccc23)c1` [D.1, (E)-Methyl 4-((3-(7-carbamoyl-1H-indol-4-yl)phenyl)amino)-4-oxobut-2-enoate], < 0.1 µM.
Still for that read-out and setting: next, `CS(=O)(=O)N1CC=C(c2cc3c(-c4cccc(OCc5nccs5)c4)ccc(C(N)=O)c3[nH]2)CC1` [A.4.4]: < 0.1 µM; `Cc1c(-c2ccc(C(N)=O)c3[nH]c(C4=CCNC4)cc23)cccc1-n1cnc2ccccc2c1=O` [G.1, 2-(2,5-Dihydro-1H-pyrrol-3-yl)-4-(2-methyl-3-(4-oxoquinazolin-3(4H)-yl)phenyl)-1H-indole-7-carboxamide]: < 0.1 µM.
As to `Cc1c(NC(=O)/C=C/c2ccccn2)cccc1-c1ccc(C(N)=O)c2[nH]ccc12` [D.8.3], the IC50 lay within 0.1 to 1 µM.
Still for that read-out and setting: next, `C=CC(=O)Nc1cccc(-c2ccc(C(N)=O)c3[nH]ncc23)c1` [Example 18, 4-(3-Acrylamidophenyl)-1H-indazole-7-carboxamide]: < 0.1 µM; `CC(=O)N1CC=C(c2cc3c(-c4cccc(NC(=O)c5ccc(C(F)F)cc5)c4C)ccc(C(N)=O)c3[nH]2)CC1` [A.3.7, 2-(1-acetyl-1,2,3,6-tetrahydropyridin-4-yl)-4-(3-(4-(difluoromethyl)benzamido)-2-methylphenyl)-1H-indole-7-carboxamide]: < 0.1 µM.
Same read-out and setting: next, `CC(=O)N1CC=C(c2cc3c(-c4cccc(NC(=O)c5cc6c(s5)CCCC6)c4C)ccc(C(N)=O)c3[nH]2)CC1` [A.3.5]: < 0.1 µM.
